Where “and” joins values, the source holds several entries; their conditions need not be identical. Identical values can stand only once. ± gives the expanded uncertainty stated by the source.
Legend:
[1] = molar heat capacity at constant pressure; settings: 101.33 kPa, Liquid, Small sample (50 mg) DSC
[2] = for viscosity / mass density: 101.33 kPa, Liquid; for viscosity: Cone and plate viscometry; for mass density: Pycnometric method; for Normal melting temperature: Crystal, DTA

C=Cn1cc[n+](CC(C[n+]2ccn(C)c2)N=[N+]=[N-])c1.N#C[N-]C#N.N#C[N-]C#N (stereo not given)
Settings	mass density [kg/m3]	molar heat capacity at constant pressure [J/K/mol]	viscosity [mPa·s]
[1], 298 K	–	400 ± 25	–
[1], 303 K	–	409.7 ± 25	–
[1], 323 K	–	452 ± 28	–
[2], 298 K	1490 ± 20	–	83.9 ± 9.5
[2], 298.9 K	–	–	66.3 ± 7.3
[2], 300 K	–	–	58.4 ± 6.2
[2], 300.9 K	–	–	53 ± 5.5
[2], 303 K	–	–	45.8 ± 4.8
[2], 307.9 K	–	–	35.6 ± 3.7
[2], 312.9 K	–	–	29.9 ± 3.1
[2], 317.9 K	–	–	26.2 ± 2.7
[2], 322.9 K	–	–	23.4 ± 2.4
[2], 327.9 K	–	–	20.8 ± 2.1
[2], 332.9 K	–	–	18.7 ± 1.9
[2], 337.9 K	–	–	17.1 ± 1.8
[2], 342.9 K	–	–	16.4 ± 1.7
[2], 347.9 K	–	–	15.8 ± 1.6
[2], 353 K	–	–	15.2 ± 1.6
[2], 357.9 K	–	–	14.6 ± 1.5
[2], 362.9 K	–	–	14 ± 1.4

Settings	Normal melting temperature [°C]
[2]	19 ± 1

Cn1cc[n+](CC(Br)CN=[N+]=[N-])c1.N#C[N-]C#N (stereo not given)
Settings	mass density [kg/m3]
[2], 298 K	1280 ± 10

Settings	Normal melting temperature [°C]
[2]	6 ± 1

C=Cn1cc[n+](CC(C[n+]2ccn(C)c2)N=[N+]=[N-])c1.[Br-].[Br-] (stereo not given)
Settings	mass density [kg/m3]
[2], 298 K	1560 ± 20

Settings	Normal melting temperature [°C]
[2]	23 ± 1

Cn1cc[n+](CC(CBr)N=[N+]=[N-])c1.[Br-] (stereo not given) [1-(2-azido-3-bromopropyl)-3-methyl-3H-imidazol-1-ium bromide]
Settings	mass density [kg/m3]
[2], 298 K	1360 ± 10

Settings	Normal melting temperature [°C]
[2]	10 ± 1

Cn1cc[n+](CC(Br)CN=[N+]=[N-])c1.[Br-] (stereo not given) [1-(3-azido-2-bromopropyl)-3-methyl-3H-imidazol-1-ium bromide]
Settings	mass density [kg/m3]
[2], 298 K	1340 ± 10

Settings	Normal melting temperature [°C]
[2]	17 ± 1

Cn1cc[n+](CC(CBr)N=[N+]=[N-])c1.N#C[N-]C#N (stereo not given)
[2]
Settings	mass density [kg/m3]	viscosity
298 K	1310 ± 10	57.01 ± 5.9 mPa·s and 56.9 ± 5.9 mPa·s
299 K	–	53.28 ± 5.5 mPa·s
300 K	–	49.6 ± 5.2 mPa·s and 49.44 ± 5.2 mPa·s
301 K	–	46.03 ± 4.8 mPa·s
302 K	–	42 ± 4.4 mPa·s and 42.05 ± 4.4 mPa·s
303.1 K	–	38.84 ± 4 mPa·s
304 K	–	35.9 ± 3.7 mPa·s and 35.89 ± 3.7 mPa·s
306 K	–	30.94 ± 3.2 mPa·s
306.1 K	–	30.9 ± 3.2 mPa·s
307.9 K	–	26.97 ± 2.8 mPa·s and 26.9 ± 2.8 mPa·s and 26.98 ± 2.8 mPa·s
309.8 K	–	23.3 ± 2.4 mPa·s
313.9 K	–	17.9 ± 1.9 mPa·s
317.9 K	–	13.9 ± 1.4 mPa·s
322 K	–	10.8 ± 1.1 mPa·s
325.9 K	–	8.8 ± 0.9 mPa·s
331.8 K	–	5.9 ± 0.6 mPa·s
336 K	–	4.8 ± 0.5 mPa·s
339.9 K	–	4.1 ± 0.4 mPa·s
344 K	–	3.5 ± 0.4 mPa·s
347.9 K	–	3.1 ± 0.3 mPa·s
353 K	–	2.5 ± 0.3 mPa·s
357.9 K	–	2.2 ± 0.2 mPa·s
361.9 K	–	2 ± 0.2 mPa·s

Settings	Normal melting temperature [°C]
[2]	-2 ± 1
